Reference: patent publication US20120064180A1, “USE OF NO AND NO DONORS FOR TERMINATING DORMANCY IN INVERTEBRATES” (UNIVERSITEIT GENT, priority 2009, published 2012)

What was measured:
[1] = system: Bolshoye Yarovoye Artemia cysts (ARC BY 1706); test: Post-diapause development of Bolshoye Yarovoye strain encysted Artemia embryos with NO donors; type: in vivo; settings: for hatching after 24 hours: 40 and 60 μM, overcome by 48 hr; for concentration at which NO donor was most effective on cyst development: Bolshoye Yarovoye cysts, FIG. 2A-F
Method: (§1) Encysted embryos (cysts) from a parthenogenetic strain of Artemia obtained in winter 2005-2006 in Bolshoye Yarovoye (Altay Region: 52° 51′64″ N-78° 37′32″ E), Russia (Artemia Reference Center (ARC) code number BY 1706), were stored in the dark at 4° C. in dry sealed bags. For the experiment, the cysts were grown at 26-28° C. with constant illumination in 25 ml of sea water under varying experimental conditions as detailed below.
To quantify larval (nauplii) emergence and hatching (FIG. 1) which served as measures of cyst development, 6 samples of 250 μl from each 50 ml tube were mixed individually with 250 μl of sea water and 2 drops of Lugol's solution (Van Stappen, G, 1996) prior to counting nauplii (N) and umbrella (U) with the aid of a dissecting microscope. […] The extent of development was determined as the percent of developed cysts which was calculated as either the number of hatched larvae, or the number of hatched and emerged larvae, obtained from 100 cysts, the latter represented by the sum of hatched nauplii (larvae), emerged larvae and undeveloped cysts containing embryos.
(§2) The hatching percentage (H %) was calculated according to: […]
(§3) The hatching percentage plus (H^+%) was calculated according to: […]
The percent of developed cysts was calculated as described above.

[2] = system: Maloye Yarovoye Artemia cysts (ARC MY 1732); test: Post-diapause development of Maloye Yarovoye strain encysted Artemia embryos with NO donor; type: in vivo
Method: as §1, with “2008” for “winter 2005-2006”, “Maloye” for “Bolshoye”, “53° 04′00″ N-79° 10′00″” for “52° 51′64″ N-78° 37′32″”, “MY 1732),” for “BY 1706),”
(§4) To quantify nauplii (larvae) emergence and hatching (FIG. 1) which served as measures of cyst development, 6 samples of 250 μl were taken from each 50 ml tube after 24 and 48 h. Subsequently the obtained samples were mixed individually with 250 μl of sea water and 2 drops of Lugol's solution (Van Stappen, G, 1996) prior to counting nauplii (N) and umbrella (U) with the aid of a stereomicroscope.
as §2, §3

[3] = system: Vinh Chau Artemia cysts (ARC VC 1742); test: Post-diapause development of Vinh Chau strain encysted Artemia embryos with NO donor; type: in vivo
Method: Dry and processed embryos (cysts) from a strain of Artemia obtained in 2009 in the Soc Trang Province in the Mekong Delta (09° 19′48″ N-105° 58′11″ E) (Artemia Reference Center (ARC) code number VC 1742), were stored in the dark at 4° C. in tin cans, that were not resealed after the first opening. For the experiment, the cysts were grown at 26-28° C. with constant illumination in 25 ml of sea water under varying experimental conditions as detailed below.
as §4, with “after 10, 12, 14, 16, 18, 20, 22 and” for “after”, “h post incubation.” for “and 48 h.”
as §2, §3

[4] = system: diapaused pupae of Heliothis virescens; settings: 30 min dip
Method: The larval stages of the tobacco budworm Heliothis virescens (Lepidoptera: Noctuidae) were reared on an artificial diet at standard conditions of 25° C. and long light conditions with 14 h light (Smagghe G et al., 1994). To produce nondiapause pupae, the larvae were kept at these conditions throughout development, whereas for pupal diapause induction, third instar larvae were transferred to 18° C. and short light conditions of 8 h light. The pupal stemma were examined to check the diapause status as described (Philips J R et al., 1966).
The treatment was done in capped plastic Falcon tubes of 10 ml. Controls were dipped in distilled water. After treatment, pupae were put in 9-cm Petri dishes, lined with a filter paper and kept at 25° C. and 14 h light, and development of adults was scored at daily intervals. Per treatment, 20 pupae were tested. Means±SD were compared to controls with a Student's t-test.

[5] = system: eggs with diapaused embryos of Bombyx mori; test: Termination of embryonic diapause in eggs dipped in NO donor or HCl; type: in vivo; settings: SpermineNONOate 1 mM 30 min dip; 20% HCl 5 min 48° C.
Method: All experiments were carried out on silkmoth strain Bombyx mori J106 (Lepidoptera: Bombycidae). Larvae were maintained on an artificial diet (Yakuruto Co.) under standard conditions of 25° C., 65% relevant humidity and 16 h light ([…] et al., 2003). Egg batches were collected from a continuous insect colony and used for the experiments. […] The latter treatment is the normally used procedure to break diapause in eggs with diapaused embryos for maintenance of the insect colony of B. mori ([…] et al., 2003). In a water-control, eggs with diapaused embryos were dipped in distilled water only, and in a blank-control, eggs with diapaused were not treated. […] The numbers of eggs with diapaused embryos per treatment (n) are given with the results.

[6] = system: diapaused adults of Leptinotarsa decemlineata; test: Termination of adult diapause by NO gas; type: in vivo
Method: All experiments were carried out on the Colorado potato beetle (potato beetle), Leptinotarsa decemlineata (Say) (Coleoptera: Chrysomelidae). Diapaused adult beetles were obtained by rearing larvae and pupae at 8 h light, 16 h dark, 25±2° C. and 70% relative humidity (Yi, et al., 2000). All life stages were fed potato (Solanum tuberosum L. ‘Bintje’) plants, that were refreshed daily. 15 days after adult emergence, the diapausing adults were placed in individual aluminum foil, 2.5-cm diameter ‘beakers’, containing fresh soil (Universal potting soil, Type 1, M. Snebbout n.v., Kaprijke, Belgium), and were stored at 4° C. in darkness.
Under red light, beetles were collected and put in Pyrex glass bottles of 100 mL, containing a layer of fresh soil. These bottles were wrapped in a double layer of aluminum foil to ensure complete darkness and sealed gastight by means of a rubber stop and a screw cap. The air was then removed by inserting a needle (in the rubber stop) connected to a vacuum pump. Using 50 ppmv NO gas (with N2 as carrier gas, purchased from Air Liquide), dilution series were prepared (with air as dilutor), and the desired final NO concentrations were injected in each bottle. A blank control, received ambient air only. Verification of the NO concentrations was done by sampling from a parallel bottle that received the same gas mixture as the treatment bottle. NO content was determined with a chemiluminescence detector (CLD 77 Amsp, Eco Physics). The treatments were all done at 4° C. in the dark and 30 minutes after insertion of the gas mixtures, the rubber stops were removed.
After the treatments, the beetles were collected in plastic containers (dimensions: 10×21×5 cm), containing fresh soil and potato leaves and kept at 25±3° C., 65% relative humidity and 8 h light (Exp. 1 and 2). In the last experiment (Exp 3), beetles were left at 4° C. in the dark for 6 hours before transfer to a 12° C. incubator, in the dark. The beetles that emerged were collected every day and the beetles' emergence per treatment (% of total) are given with the results.

[7] = system: eggs with diapaused embryos of Bombyx mori; test: Termination of embryonic diapause in eggs by NO gas; type: in vivo; settings: 5 days after treatment
Method: All experiments were carried out on silkmoth strain Bombyx mori J106 (Lepidoptera: Bombycidae). Larvae were maintained on an artificial diet (Yakuruto co.) under standard conditions of 25° C., 65% relative humidity and 16 h light (Tazima, Y., 1978; Swevers et al., 2003). Egg batches were collected from a continuous insect colony and used for the experiments.
In a first series, a batch of 70 eggs with diapaused embryos of B. mori were submerged for 5 minutes in 20% HCl (in distilled water) at 48° C., and then the eggs were washed with distilled water and dried to the air. […] The latter treatment is the normally used procedure to break diapause in eggs with diapaused embryos for maintenance of the insect colony of B. mori (Tazima, Y., 1978; Swevers et al., 2003). In a water-control, a batch of 70 eggs with diapaused embryos was submerged in distilled water for 5 minutes at 45° C., and in a blank-control, the same procedure was followed, but without addition of water.
In parallel, 4 batches of 70 eggs each, were put in Pyrex glass bottles of 100 mL, which were sealed gastight by means of a rubber stop and a screw cap. Then the air was removed from these bottles by inserting a needle (in the rubber stop) connected to a vacuum pump. Using 50 ppmv (Parts Per Million by Volume) NO gas (with N2 as carrier gas, purchased from Air Liquide) dilution series were prepared (with air as dilutor) to obtain final NO concentrations of 20, 200, 2000 and 20000 ppbv, in these bottles. Verification of the NO concentrations was done by sampling from a parallel bottle that received the same gas mixture as the treatment bottle and NO content was determined by using a chemiluminescence detector (CLD 77 Amsp, Eco Physics). 30 minutes after insertion of the gas mixtures, the rubber stops were removed. These treatments were all performed at room temperature.
Development of the neonate larvae (=hatching of first instar larvae from eggs) was scored at daily intervals. The numbers of eggs with diapaused embryos per treatment (n) are given with the results.

Molecule: CCCN(CCCN)N(O)N=O [Papa NONOate, 3-(2-hydroxy-2-nitroso-1-propylhydrazino)-1-propanamine]
- hatching after 24 hours [1]: inhibited hatching almost completely
- concentration at which NO donor was most effective on cyst development [1]: 0.63 µM
- increase in number of nauplii compared to the control ([2]; 4 μM, 48 h): ~5 fold
- hatching percentage (H %) ([2]; 4 μM, 48 h, control around 10%): 47%
- optimal dose for inducing hatching ([2]; Maloye Yarovoye diapausing cysts): 4 µM
- hatching percentage (H %) versus untreated control ([3]; 0.5 μM, 16 and 18 h post-treatment): significantly increased
- hatching percentage (H %) versus non-treated controls ([3]; 1 and 4 μM, 16 hours and more): comparable to the non-treated controls
- optimal dose ([3]; Vinh Chau cysts): 0.5 µM
- hatching percentage plus (H+%) versus non-treated controls ([3]; all treatments (0.5, 1, 4 μM) at 12, 18 and 20 hours): significantly increase

Molecule: N-[4-[1-(3-aminopropyl)-2-hydroxy-2-nitrosohydrazinobutyl]-1,3-propane diamine [Spermine NONOate]
- hatching after 24 hours [1]: less dramatic, but obvious
- concentration at which NO donor was most effective on cyst development [1]: 4.0 µM
- time to develop into the adult stage ([4]; 1000 μM, control 9.17±0.75 d, p=0.01): 7.60 ± 0.89 days
- time to adult stage versus controls ([4]; 10 and 100 μM): similar
- Number of developed neonates at day 6 [5]: 28
- Number of developed neonates at day 7 [5]: 22
- Number of developed neonates at day 8 [5]: 10
- Number of developed neonates at day 14 [5]: 0
- Number of undeveloped eggs at day 14 [5]: 10
- eggs developed into neonate larvae at 6-8 days after treatment (total) [5]: 86%
- percentage of developed neonates at day 14 [5]: (0%)

Molecule: nitric oxide [NO gas]
- percentage of emerging adult beetles ([6]; 0.300 ppmv, after 4 days, in diapause for 27 days, blank control 14.3%): 42.9%
- percentage of emerging adult beetles ([6]; 2.6 ppmv, 3 days after treatment, in diapause for 10 days): 20%
- percentage of emerging adult beetles ([6]; 2.6 ppmv, day 6, in diapause for 10 days): 40%
- percentage of emerging adult beetles ([6]; 6.1 ppmv, 3 days after treatment, in diapause for 10 days): 20%
- percentage of emerging adult beetles ([6]; 6.1 ppmv, day 6, in diapause for 10 days): 20%
- percentage of emerging adult beetles ([6]; 67.4 ppmv, after 4 days, in diapause for 10 days): 20%
- eggs emerged ([7]; 0.02-20 ppmv NO, controls 0%): 27.1-37.1%
- Percentage of developing eggs ([7]; 0.02 ppmv NO): 37.1%
- Percentage of developing eggs ([7]; 0.20 ppmv NO): 35.7%
- Percentage of developing eggs ([7]; 2.00 ppmv NO): 31.4%
- Percentage of developing eggs ([7]; 20.0 ppmv NO): 27.1%
